From the supplement of paper PMC10627819

Experiments:
S. aureus DSM 20231 [1] = experiment: fitness (endpoint OD595 vs no drug) (fraction); higher = more growth
How it was run: (§1)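 Fitness was measured as bacterial growth in 384-well plates inoculated at OD595 0.01 (30 µl, or 55 µl for S. pneumoniae). Media were TSB, LB Lennox or CY, at 37 °C. OD595 was read every 30 min for 14 h and background-subtracted against the first reading. Fitness is OD595 at the transition into stationary phase divided by the robust mean of no-drug control wells, capped at 1.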

B. subtilis 168 [2] = experiment: as above
How it was run: as §1

S. aureus DSM 20231 [3] = experiment: Bliss interaction score (quartile over a dose matrix) (fitness difference); higher = more antagonism (negative = synergy)
How it was run: (§2)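 Growth was read as OD595 when cultures entered stationary phase, and each value was divided by the plate's robust no-drug mean and capped at 1. This normalised ratio is the fitness value, and fitness for each single drug came from the combination data. The Bliss score subtracts the expected fitness, taken as the product, from the observed fitness and is given as quartiles across technical, biological and donor/recipient replicates.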

B. subtilis 168 [4] = experiment: as above
How it was run: as §2

S. aureus Newman = experiment: as above
How it was run: as §2

S. pneumoniae D39V [5] = experiment: as above
How it was run: as §2

S. pneumoniae D39V [6] = experiment: fitness (endpoint OD595 vs no drug) (fraction); higher = more growth
How it was run: as §1
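Throughout, for Bliss interaction score (quartile over a dose matrix): first quartile when negative (synergy) and third quartile when positive (antagonism).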
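Throughout, for fitness (endpoint OD595 vs no drug): OD595 on entry to stationary phase over no-drug wells; at most 1.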

COc1cccc2c1C(=O)c1c(O)c3c(c(O)c1C2=O)C[C@@](O)(C(=O)CO)C[C@@H]3O[C@H]1C[C@H](N)[C@H](O)[C@H](C)O1 [Doxorubicin] + COc1cc(Cc2cnc(N)nc2N)cc(OC)c1OC [Trimethoprim]
fitness
Conditions	partner 0.125 µg/mL	partner 0.25 µg/mL	partner 0.5 µg/mL	partner 1 µg/mL
B. subtilis 168 [2], first compound 0.625 µg/mL	0.628	0.489	0.435	–
B. subtilis 168 [2], first compound 1.25 µg/mL	0.582	–	0.421	–
B. subtilis 168 [2], first compound 2.5 µg/mL	0.469	0.393	0.37	–
S. aureus DSM 20231 [1], first compound 0.625 µg/mL	0.683	0.557	0.175	0.0314
S. aureus DSM 20231 [1], first compound 1.25 µg/mL	0.742	0.56	0.0868	0.0177
S. aureus DSM 20231 [1], first compound 2.5 µg/mL	0.728	0.523	0.0302	0.0244

fitness, B. subtilis 168 [2], one replicate
Conditions	partner 0.1 µg/mL	partner 0.2 µg/mL	partner 0.4 µg/mL	partner 1 µg/mL	partner 2 µg/mL
first compound 0.625 µg/mL	0.868	0.699	0.524	0.278	0.222
first compound 1.25 µg/mL	0.849	0.646	0.504	0.228	0.152
first compound 2.5 µg/mL	0.799	0.559	0.391	0.126	0.0762

Conditions	Bliss interaction score
B. subtilis 168 [4]	-0.0392
S. aureus DSM 20231 [3]	-0.0539
S. aureus Newman	0.0879
S. pneumoniae D39V [5]	-0.179

CO/N=C(\C(=O)N[C@@H]1C(=O)N2C(C(=O)O)=C(COC(C)=O)CS[C@H]12)c1csc(N)n1 [Cefotaxime] + COc1cc(Cc2cnc(N)nc2N)cc(OC)c1OC [Trimethoprim]
one replicate
Conditions	fitness
B. subtilis 168 [2], first compound 0.00775 µg/mL, partner 0.125 µg/mL	0.309
B. subtilis 168 [2], first compound 0.00775 µg/mL, partner 0.25 µg/mL	0.288
B. subtilis 168 [2], first compound 0.00775 µg/mL, partner 0.5 µg/mL	0.269
B. subtilis 168 [2], first compound 0.0155 µg/mL, partner 0.125 µg/mL	0.262
B. subtilis 168 [2], first compound 0.0155 µg/mL, partner 0.25 µg/mL	0.181
B. subtilis 168 [2], first compound 0.0155 µg/mL, partner 0.5 µg/mL	0.0769
B. subtilis 168 [2], first compound 0.031 µg/mL, partner 0.125 µg/mL	0.149
B. subtilis 168 [2], first compound 0.031 µg/mL, partner 0.25 µg/mL	0.0914
B. subtilis 168 [2], first compound 0.031 µg/mL, partner 0.5 µg/mL	0.0904
B. subtilis 168 [2], first compound 0.0625 µg/mL, partner 0.1 µg/mL	0.47
B. subtilis 168 [2], first compound 0.0625 µg/mL, partner 0.125 µg/mL	0.432
B. subtilis 168 [2], first compound 0.0625 µg/mL, partner 0.2 µg/mL	0.454
B. subtilis 168 [2], first compound 0.0625 µg/mL, partner 0.4 µg/mL	0.402
B. subtilis 168 [2], first compound 0.125 µg/mL, partner 0.1 µg/mL	0.364
B. subtilis 168 [2], first compound 0.125 µg/mL, partner 0.125 µg/mL	0.345
B. subtilis 168 [2], first compound 0.125 µg/mL, partner 0.2 µg/mL	0.336
B. subtilis 168 [2], first compound 0.125 µg/mL, partner 0.4 µg/mL	0.296
B. subtilis 168 [2], first compound 0.25 µg/mL, partner 0.1 µg/mL	0.109
B. subtilis 168 [2], first compound 0.25 µg/mL, partner 0.125 µg/mL	0.274
B. subtilis 168 [2], first compound 0.25 µg/mL, partner 0.2 µg/mL	0.223
B. subtilis 168 [2], first compound 0.25 µg/mL, partner 0.4 µg/mL	0.127
B. subtilis 168 [2], first compound 0.5 µg/mL, partner 1 µg/mL	0.104
B. subtilis 168 [2], first compound 0.5 µg/mL, partner 2 µg/mL	0.129
B. subtilis 168 [2], first compound 1 µg/mL, partner 1 µg/mL	0.0524
B. subtilis 168 [2], first compound 1 µg/mL, partner 2 µg/mL	0.0575
B. subtilis 168 [2], first compound 2 µg/mL, partner 1 µg/mL	0.0669
B. subtilis 168 [2], first compound 2 µg/mL, partner 2 µg/mL	0.0449
S. aureus DSM 20231 [1], first compound 0.039 µg/mL, partner 0.125 µg/mL	0.663
S. aureus DSM 20231 [1], first compound 0.312 µg/mL, partner 0.125 µg/mL	0.498
S. aureus DSM 20231 [1], first compound 0.312 µg/mL, partner 0.25 µg/mL	0.384
S. aureus DSM 20231 [1], first compound 0.312 µg/mL, partner 0.5 µg/mL	0.0438

fitness
Conditions	partner 0.125 µg/mL	partner 0.25 µg/mL	partner 0.5 µg/mL	partner 1 µg/mL
B. subtilis 168 [2], first compound 0.0625 µg/mL	–	0.386	0.363	–
B. subtilis 168 [2], first compound 0.125 µg/mL	–	0.285	0.27	–
B. subtilis 168 [2], first compound 0.25 µg/mL	–	0.217	0.19	–
B. subtilis 168 [2], first compound 0.5 µg/mL	–	–	0.125	–
B. subtilis 168 [2], first compound 1 µg/mL	–	–	0.108	–
B. subtilis 168 [2], first compound 2 µg/mL	–	–	0.0672	–
S. aureus DSM 20231 [1], first compound 0.039 µg/mL	–	0.558	0.14	0.047
S. aureus DSM 20231 [1], first compound 0.078 µg/mL	0.584	0.536	0.207	0.0436
S. aureus DSM 20231 [1], first compound 0.156 µg/mL	0.605	0.57	0.299	0.0551

Conditions	Bliss interaction score
B. subtilis 168 [4]	0.0814
S. aureus DSM 20231 [3]	0.0326
S. aureus Newman	-0.0597
S. pneumoniae D39V [5]	0.224

C[C@@H]1O[C@@H]1P(=O)(O)O [Fosfomycin] + CC(=O)NC[C@H]1CN(c2ccc(N3CCOCC3)c(F)c2)C(=O)O1 [Linezolid]
Conditions	fitness
B. subtilis 168 [2], first compound 1.562 µg/mL, partner 0.125 µg/mL	0.507
B. subtilis 168 [2], first compound 3.124 µg/mL, partner 0.125 µg/mL	0.437
B. subtilis 168 [2], first compound 6.248 µg/mL, partner 0.125 µg/mL	0.304
S. aureus DSM 20231 [1], first compound 0.781 µg/mL, partner 0.125 µg/mL	0.691
S. aureus DSM 20231 [1], first compound 0.781 µg/mL, partner 0.25 µg/mL	0.581
S. aureus DSM 20231 [1], first compound 0.781 µg/mL, partner 0.5 µg/mL	0.167
S. aureus DSM 20231 [1], first compound 1.562 µg/mL, partner 0.125 µg/mL	0.598
S. aureus DSM 20231 [1], first compound 1.562 µg/mL, partner 0.25 µg/mL	0.495
S. aureus DSM 20231 [1], first compound 1.562 µg/mL, partner 0.5 µg/mL	0.0991
S. aureus DSM 20231 [1], first compound 3.124 µg/mL, partner 0.125 µg/mL	0.459
S. aureus DSM 20231 [1], first compound 3.124 µg/mL, partner 0.25 µg/mL	0.339
S. aureus DSM 20231 [1], first compound 3.124 µg/mL, partner 0.5 µg/mL	0.0673
S. pneumoniae D39V [6], first compound 1.25 µg/mL, partner 0.105 µg/mL	0.839
S. pneumoniae D39V [6], first compound 1.25 µg/mL, partner 0.21 µg/mL	0.76
S. pneumoniae D39V [6], first compound 1.25 µg/mL, partner 0.4 µg/mL	0.314
S. pneumoniae D39V [6], first compound 1.25 µg/mL, partner 0.42 µg/mL	0.605
S. pneumoniae D39V [6], first compound 1.25 µg/mL, partner 0.8 µg/mL	0.138
S. pneumoniae D39V [6], first compound 2.5 µg/mL, partner 0.105 µg/mL	0.803
S. pneumoniae D39V [6], first compound 2.5 µg/mL, partner 0.2 µg/mL	0.626
S. pneumoniae D39V [6], first compound 2.5 µg/mL, partner 0.21 µg/mL	0.729
S. pneumoniae D39V [6], first compound 2.5 µg/mL, partner 0.4 µg/mL	0.315
S. pneumoniae D39V [6], first compound 2.5 µg/mL, partner 0.42 µg/mL	0.522
S. pneumoniae D39V [6], first compound 2.5 µg/mL, partner 0.8 µg/mL	0.132
S. pneumoniae D39V [6], first compound 5 µg/mL, partner 0.105 µg/mL	0.721
S. pneumoniae D39V [6], first compound 5 µg/mL, partner 0.2 µg/mL	0.564
S. pneumoniae D39V [6], first compound 5 µg/mL, partner 0.21 µg/mL	0.704
S. pneumoniae D39V [6], first compound 5 µg/mL, partner 0.4 µg/mL	0.311
S. pneumoniae D39V [6], first compound 5 µg/mL, partner 0.42 µg/mL	0.421
S. pneumoniae D39V [6], first compound 5 µg/mL, partner 0.8 µg/mL	0.136

fitness, one replicate
Conditions	first compound 0.781 µg/mL	first compound 1.562 µg/mL	first compound 3.124 µg/mL	first compound 6.248 µg/mL
B. subtilis 168 [2], partner 0.0625 µg/mL	–	0.726	0.606	0.368
S. aureus DSM 20231 [1], partner 1 µg/mL	0.0309	0.0297	0.0078	–

Conditions	Bliss interaction score
B. subtilis 168 [4]	0.123
S. aureus DSM 20231 [3]	0.0569
S. aureus Newman	-0.134
S. pneumoniae D39V [5]	0.0981

C[C@@H]1O[C@@H]1P(=O)(O)O [Fosfomycin] + CCC[C@@H]1C[C@@H](C(=O)N[C@@H]([C@H]2O[C@H](SC)[C@H](O)[C@@H](O)[C@H]2O)[C@@H](C)O)N(C)C1 [Lincomycin]
fitness
Conditions	partner 0.1 µg/mL	partner 0.2 µg/mL	partner 0.215 µg/mL	partner 0.4 µg/mL	partner 0.43 µg/mL	partner 0.8 µg/mL	partner 0.86 µg/mL
B. subtilis 168 [2], first compound 1.562 µg/mL	0.689	0.707	–	0.705	–	–	–
B. subtilis 168 [2], first compound 3.124 µg/mL	0.616	0.591	–	0.61	–	–	–
B. subtilis 168 [2], first compound 6.248 µg/mL	0.469	0.429	–	0.476	–	–	–
S. aureus DSM 20231 [1], first compound 0.781 µg/mL	0.645	0.508	–	0.137	–	–	–
S. aureus DSM 20231 [1], first compound 1.562 µg/mL	0.515	0.32	–	0.0482	–	–	–
S. aureus DSM 20231 [1], first compound 3.124 µg/mL	0.387	0.0895	–	0.0388	–	–	–
S. pneumoniae D39V [6], first compound 1.25 µg/mL	–	0.606	0.812	0.365	0.698	0.0632	0.499
S. pneumoniae D39V [6], first compound 2.5 µg/mL	–	0.58	0.823	0.317	0.683	0.0611	0.45
S. pneumoniae D39V [6], first compound 5 µg/mL	–	0.511	0.785	0.285	0.691	0.0462	0.394

fitness, B. subtilis 168 [2], one replicate
Conditions	first compound 1.562 µg/mL	first compound 3.124 µg/mL	first compound 6.248 µg/mL
partner 0.8 µg/mL	0.719	0.572	0.466
partner 1.6 µg/mL	0.695	0.537	0.436

Conditions	Bliss interaction score
B. subtilis 168 [4]	0.0718
S. aureus DSM 20231 [3]	-0.158
S. aureus Newman	-0.31
S. pneumoniae D39V [5]	0.0737
